{"source": "patent US7407954B2", "about": "“Thieno-(1,3)-oxazin-4-ones with lipase inhibiting activity” (Alizyme Therapeutics Limited, priority 2001, dated 2008)", "key": {"[1]": {"target": "T1, human pancreatic lipase (Homo sapiens, UniProt P16233)", "T1 sequence (P16233 17-465)": "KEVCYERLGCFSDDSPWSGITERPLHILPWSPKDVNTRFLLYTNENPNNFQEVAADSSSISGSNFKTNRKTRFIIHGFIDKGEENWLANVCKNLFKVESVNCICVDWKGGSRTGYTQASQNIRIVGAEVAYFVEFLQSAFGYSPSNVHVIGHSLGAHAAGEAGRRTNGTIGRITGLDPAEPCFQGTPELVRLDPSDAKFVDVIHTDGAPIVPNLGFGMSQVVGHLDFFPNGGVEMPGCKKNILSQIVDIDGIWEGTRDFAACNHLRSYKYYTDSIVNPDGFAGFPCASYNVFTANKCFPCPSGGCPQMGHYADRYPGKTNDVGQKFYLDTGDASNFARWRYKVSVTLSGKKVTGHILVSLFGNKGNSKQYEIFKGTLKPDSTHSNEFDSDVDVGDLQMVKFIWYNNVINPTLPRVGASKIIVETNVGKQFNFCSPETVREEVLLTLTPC", "assay": "Lipase activity, quinine diimine dye colorimetric assay (Sigma Lipase-PS)", "assay_type": "biochemical", "method": "Measurement of Lipase Activity Using a Quinine Diimine Dye Calorimetric Assay\nThe inhibitory activity of the selected compounds to pancreatic lipase was measured in the following assay available from Sigma Ltd (Lipase-PS™, catalog number 805-A):\nThe glycerol released from the action of pancreatic and monoglyceride lipase was oxidised to release H2O2. The peroxidase reaction step then produces a quinine dye which is pink in colour and absorbs light at a wavelength of 550 nm.\nIndividual test compounds were dissolved in DMSO (dimethyl sulphoxide) at 10 mM. DMSO was used to avoid any problems with compounds being water-insoluble.\nFor individual compounds, the IC50 (concentration at which lipase activity is inhibited to one half of the maximum) was calculated by measuring the inhibitory activity from log-dose response curves using a range of inhibitor concentrations.\nA range of standard compounds were assayed in the quinine dye calorimetric assay which provides a rapid method to measure lipase inhibitory activity."}, "[2]": {"target": "T2, porcine pancreatic lipase (Sus scrofa, UniProt P00591)", "T2 sequence (P00591 1-450)": "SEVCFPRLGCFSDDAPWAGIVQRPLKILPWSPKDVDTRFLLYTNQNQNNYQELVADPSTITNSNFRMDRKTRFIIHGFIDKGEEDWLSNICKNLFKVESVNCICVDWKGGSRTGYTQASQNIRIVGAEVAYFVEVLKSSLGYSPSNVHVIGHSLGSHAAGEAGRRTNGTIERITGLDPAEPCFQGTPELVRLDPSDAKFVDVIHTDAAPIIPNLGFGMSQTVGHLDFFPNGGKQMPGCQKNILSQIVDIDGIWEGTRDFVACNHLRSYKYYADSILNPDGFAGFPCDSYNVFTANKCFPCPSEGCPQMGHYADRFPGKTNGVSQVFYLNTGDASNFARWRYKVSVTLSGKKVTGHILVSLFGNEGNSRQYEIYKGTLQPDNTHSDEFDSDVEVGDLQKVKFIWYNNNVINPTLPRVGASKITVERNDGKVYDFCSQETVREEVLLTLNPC", "assay": "Lipase enzyme activity, NaOH titration method (lipid micelles)", "assay_type": "biochemical", "conditions": "NaOH titration assay", "method": "Measurement of Lipase Enzyme Activity Using a NaOH Titration Method\nThe inhibitory activity of the selected compound to pancreatic lipase was measured in the assay described in Pasquier et al; 1996, Vol 7, Nutritional Biochemistry, 293-302.\nLog dose/response curves were constructed using a range of inhibitor concentrations.\nSelected thieno-oxazinone compounds were tested in the NaOH titration assay. In this assay, the activity of porcine pancreatic lipase in a system containing lipid micelles is recorded. These conditions are therefore similar to those encountered in the gastrointestinal tract."}}}
{"smiles": "O=c1oc(Nc2ccc(Oc3ccccc3)cc2)nc2sc(Cc3ccccc3)cc12", "note": "[Compound 50, 6-Phenylmethyl-2-(4-phenoxy)phenylamino-4H-thieno[2,3-d][1,3]oxazin-4-one]", "values": [{"measurement": "IC50", "setting": "[1]", "value": "< 100", "unit": "nM"}, {"measurement": "IC50", "setting": "[2]", "value": "≤ 1000", "unit": "nM"}]}
